{"source": "patent US20100041089A1", "about": "“IMPROVED METHOD FOR DETECTING CHEMICAL […]” (priority 2006, published 2010)", "tested_on": "yeast genes (expressed mRNA)", "assay": "DNA chip measurement of expressed mRNA of yeast genes after culture with a toxic chemical substance", "type": "cell-based, Saccharomyces cerevisiae S288C", "procedure": "Yeast (Saccharomyces cerevisiae S288C (a SUC2mal mel gap2 CUP1)) were cultured at 25° C. on YPD medium (yeast extract 1%, polypeptone 2%, glucose 2%). One of toxic chemical substances was added to the cell at logarithmic growth phase, and the cell was further cultured for two hours. Cell was cultured without any chemical substance in the same condition, and was used as a control. Concentrations of the chemical substances were defined to inhibit the growth of the yeast but not lead to death.\nAfter the completion of cultivation, the culture was centrifuged to collect the cells. To the cells, sodium acetate buffer (50 mM sodium acetate, 10 mM EDTA, 1% SDS) was added, and the mixture was shaken at 65° C. for five minutes, followed by returning to room temperature, and obtaining the supernatant, which procedure was repeated two times. To the supernatant, ½ amount of a solution of phenol/chloroform (1:1) was added, and the mixture was centrifuged to give a supernatant, an equal amount of chloroform was added, and the mixture was centrifuged to give a supernatant. To the supernatant, an equal amount of isopropanol containing 0.3 M sodium acetate was added, and the mixture was allowed to stand at room temperature for 30 minutes, after which the mixture was centrifuged to give sediment of the whole RNAs. Seventy % ethanol was added to the sediment, and the mixture was again centrifuged to give sediment, which was then dried and dissolved in water. mRNA was isolated from the whole RNAs as followings. In view of the fact that a poly A chain is attached to the 3′ terminus of mRNA, a polynucleotide having a poly T structure which was immobilized on the surface of latex beads was used to trap the mRNA, and then the mRNA was washed and eluted with spine column (Oligotex-dT30<Super>mRNA Purification Kit, Takara). Reverse transcription of the mRNA was conducted with a reverse transcriptase (Super Script II Reverse Transcriptase; catalogue No. 18064-014, GibcoBRL) using fluorescence-labeled nucleotides to give cDNAs that were introduced with Cy3-dUTP or Cy5-dUTP during the reverse transcription.\nThe labeled cDNAs were dissolved in TE buffer (10 mM Tris-HCl/1 mM EDTA, pH 8.0), and the solution was dropped on the DNA chip containing the whole genes of yeast (DNA Chip Research Inc. Japan) so that the cDNAs were hybridized on the DNA chip at 65° C. for over 12 hours. The fluoresces intensity of the DNA chip was read with a scanner, and the ratio relative to the fluorescence intensity resulting from the absence of chemical substance was estimated as the following, which is shown in Tables 1 to 9.\nIn the Tables, “Intensity” indicated in the rightmost column is a value of the level of expressed mRNA of each gene in control cells as divided by the average level of the expressions of the whole genes. A gene of which mRNA level is lower in control, and is higher in cases of addition of chemical substance, is especially useful in the detection of toxic substances.\nHere, when a ratio of an amount of mRNA expressed in the presence of the chemical substance to an amount of mRNA expressed in the absence of the chemical substance is two or more, then it is considered significant."}
{"molecule": "CCCCCCCCCCCCOS(=O)(=O)[O-].[Na+]", "note": "[(18), Sodium lauryl sulfate]", "values": [{"measurement": "The level of expressed mRNA in the presence of chemical substance/The level of expressed mRNA in the absence of chemical substance", "setting": "yeast gene YFL032W, cultured two hours with substance", "value": 0.8}, {"measurement": "The level of expressed mRNA in the presence of chemical substance/The level of expressed mRNA in the absence of chemical substance", "setting": "yeast gene YFR046C, cultured two hours with substance", "value": 1.2}, {"measurement": "The level of expressed mRNA in the presence of chemical substance/The level of expressed mRNA in the absence of chemical substance", "setting": "yeast gene YGL006W (transport facilitation protein gene)", "value": 4.1}, {"measurement": "The level of expressed mRNA in the presence of chemical substance/The level of expressed mRNA in the absence of chemical substance", "setting": "yeast gene YGL037C, cultured two hours with substance", "value": 2.6}, {"measurement": "The level of expressed mRNA in the presence of chemical substance/The level of expressed mRNA in the absence of chemical substance", "setting": "yeast gene YGL047W, cultured two hours with substance", "value": 1.2}, {"measurement": "The level of expressed mRNA in the presence of chemical substance/The level of expressed mRNA in the absence of chemical substance", "setting": "yeast gene YGL053W, cultured two hours with substance", "value": 3.7}, {"measurement": "The level of expressed mRNA in the presence of chemical substance/The level of expressed mRNA in the absence of chemical substance", "setting": "yeast gene YGL121C, cultured two hours with substance", "value": 3.5}, {"measurement": "The level of expressed mRNA in the presence of chemical substance/The level of expressed mRNA in the absence of chemical substance", "setting": "yeast gene YGL136C, cultured two hours with substance", "value": 1.1}, {"measurement": "The level of expressed mRNA in the presence of chemical substance/The level of expressed mRNA in the absence of chemical substance", "setting": "yeast gene YGL199C, cultured two hours with substance", "value": 1.0}, {"measurement": "The level of expressed mRNA in the presence of chemical substance/The level of expressed mRNA in the absence of chemical substance", "setting": "yeast gene YGR008C, cultured for two hours with substance", "value": 4.2}, {"measurement": "The level of expressed mRNA in the presence of chemical substance/The level of expressed mRNA in the absence of chemical substance", "setting": "yeast gene YGR026W, cultured two hours with the chemical substance", "value": 1.2}, {"measurement": "The level of expressed mRNA in the presence of chemical substance/The level of expressed mRNA in the absence of chemical substance", "setting": "yeast gene YGR035C, cultured two hours with substance", "value": 4.3}, {"measurement": "The level of expressed mRNA in the presence of chemical substance/The level of expressed mRNA in the absence of chemical substance", "setting": "yeast gene YGR101W, cultured two hours with substance", "value": 1.1}, {"measurement": "The level of expressed mRNA in the presence of chemical substance/The level of expressed mRNA in the absence of chemical substance", "setting": "yeast gene YGR110W, cultured two hours with substance", "value": 2.1}, {"measurement": "The level of expressed mRNA in the presence of chemical substance/The level of expressed mRNA in the absence of chemical substance", "setting": "yeast gene YGR130C, cultured two hours with substance", "value": 1.6}, {"measurement": "The level of expressed mRNA in the presence of chemical substance/The level of expressed mRNA in the absence of chemical substance", "setting": "yeast gene YGR154C, cultured two hours with substance", "value": 1.2}, {"measurement": "The level of expressed mRNA in the presence of chemical substance/The level of expressed mRNA in the absence of chemical substance", "setting": "yeast gene YGR213C", "value": 8.5}, {"measurement": "The level of expressed mRNA in the presence of chemical substance/The level of expressed mRNA in the absence of chemical substance", "setting": "yeast gene YGR221C, cultured two hours with substance", "value": 1.3}, {"measurement": "The level of expressed mRNA in the presence of chemical substance/The level of expressed mRNA in the absence of chemical substance", "setting": "yeast gene YGR244C, cultured for two hours with substance", "value": 3.1}, {"measurement": "The level of expressed mRNA in the presence of chemical substance/The level of expressed mRNA in the absence of chemical substance", "setting": "yeast gene YHR029C, cultured two hours with substance", "value": 2.1}, {"measurement": "The level of expressed mRNA in the presence of chemical substance/The level of expressed mRNA in the absence of chemical substance", "setting": "yeast gene YHR138C, cultured two hours with substance", "value": 7.1}, {"measurement": "The level of expressed mRNA in the presence of chemical substance/The level of expressed mRNA in the absence of chemical substance", "setting": "yeast gene YHR199C, cultured two hours with substance", "value": 0.9}, {"measurement": "The level of expressed mRNA in the presence of chemical substance/The level of expressed mRNA in the absence of chemical substance", "setting": "yeast gene YIL023C, cultured two hours with substance", "value": 1.0}, {"measurement": "The level of expressed mRNA in the presence of chemical substance/The level of expressed mRNA in the absence of chemical substance", "setting": "yeast gene YIL024C, cultured two hours with substance", "value": 1.0}, {"measurement": "The level of expressed mRNA in the presence of chemical substance/The level of expressed mRNA in the absence of chemical substance", "setting": "yeast gene YIL041W, cultured two hours with substance", "value": 1.1}, {"measurement": "The level of expressed mRNA in the presence of chemical substance/The level of expressed mRNA in the absence of chemical substance", "setting": "yeast gene YIL087C, cultured two hours with substance", "value": 1.6}, {"measurement": "The level of expressed mRNA in the presence of chemical substance/The level of expressed mRNA in the absence of chemical substance", "setting": "yeast gene YIL117C, cultured two hours with substance", "value": 2.6}, {"measurement": "The level of expressed mRNA in the presence of chemical substance/The level of expressed mRNA in the absence of chemical substance", "setting": "yeast gene YJL057C, cultured two hours with substance", "value": 1.5}, {"measurement": "The level of expressed mRNA in the presence of chemical substance/The level of expressed mRNA in the absence of chemical substance", "setting": "yeast gene YJL066C, cultured two hours with substance", "value": 1.5}, {"measurement": "The level of expressed mRNA in the presence of chemical substance/The level of expressed mRNA in the absence of chemical substance", "setting": "yeast gene YJL082W, cultured two hours with substance", "value": 0.3}, {"measurement": "The level of expressed mRNA in the presence of chemical substance/The level of expressed mRNA in the absence of chemical substance", "setting": "yeast gene YJL108C, cultured two hours with substance", "value": 0.9}, {"measurement": "The level of expressed mRNA in the presence of chemical substance/The level of expressed mRNA in the absence of chemical substance", "setting": "yeast gene YJL149W, cultured two hours with substance", "value": 1.2}, {"measurement": "The level of expressed mRNA in the presence of chemical substance/The level of expressed mRNA in the absence of chemical substance", "setting": "yeast gene YJL151C, cultured two hours with substance", "value": 2.4}, {"measurement": "The level of expressed mRNA in the presence of chemical substance/The level of expressed mRNA in the absence of chemical substance", "setting": "yeast gene YJL152W, cultured two hours with substance", "value": 1.7}, {"measurement": "The level of expressed mRNA in the presence of chemical substance/The level of expressed mRNA in the absence of chemical substance", "setting": "yeast gene YJL161W, cultured two hours with substance", "value": 2.1}, {"measurement": "The level of expressed mRNA in the presence of chemical substance/The level of expressed mRNA in the absence of chemical substance", "setting": "yeast gene YJL166W, mitochondria-located protein gene, cultured two hours with substance", "value": 4.0}, {"measurement": "The level of expressed mRNA in the presence of chemical substance/The level of expressed mRNA in the absence of chemical substance", "setting": "yeast gene YJL171C, cultured two hours with substance", "value": 2.9}, {"measurement": "The level of expressed mRNA in the presence of chemical substance/The level of expressed mRNA in the absence of chemical substance", "setting": "yeast gene YJL186W, cultured two hours with substance", "value": 0.8}, {"measurement": "The level of expressed mRNA in the presence of chemical substance/The level of expressed mRNA in the absence of chemical substance", "setting": "yeast gene YJR008W, cultured two hours with substance", "value": 2.7}]}
